According to patent US9951065B2 (Gilead Sciences, Inc., priority 2015, dated 2018):
pEC50: −log10 of the molar value.

These molecules were tested against T1, IDO1 (Homo sapiens, UniProt P14902) (assay: Cell-based (HeLa) assay for measurement of IDO1 inhibition (kynurenine levels in supernatant after IFNγ induction)). Conditions: HeLa cells, IFNγ-induced IDO1, kynurenine in supernatant after 48 hour incubation; geometric mean of a minimum of four determinations.
T1 construct: HeLa cells were treated with a test compound in the presence of IFNγ, which induces IDO1 expression; host or cells: H1-HeLa cells, IDO1 induced with IFNγ
T1 sequence (P14902 whole entry): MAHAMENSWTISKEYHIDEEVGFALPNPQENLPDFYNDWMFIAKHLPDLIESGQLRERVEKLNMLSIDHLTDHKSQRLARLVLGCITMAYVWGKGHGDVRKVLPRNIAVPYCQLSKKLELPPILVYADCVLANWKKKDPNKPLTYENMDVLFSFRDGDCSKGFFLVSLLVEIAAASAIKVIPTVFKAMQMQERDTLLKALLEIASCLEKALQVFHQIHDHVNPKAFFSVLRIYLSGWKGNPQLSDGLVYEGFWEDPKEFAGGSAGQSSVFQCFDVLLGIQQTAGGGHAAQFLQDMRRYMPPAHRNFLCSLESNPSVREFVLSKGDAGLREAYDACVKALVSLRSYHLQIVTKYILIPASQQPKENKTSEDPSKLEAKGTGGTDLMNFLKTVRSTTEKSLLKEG
Outline: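 HeLa cells, 1,250 per well, treated with compound (0.5% DMSO final) plus IFNγ to induce IDO1, for 48 h. Supernatant kynurenine measured by TCA hydrolysis at 60 °C, then p-dimethylaminobenzaldehyde, absorbance 480 nm. EC50 from a four-parameter fit normalized to −/+IFNγ controls; geometric mean of at least four runs.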

**Q.** With `CC(=O)NCc1nc2nccc(/C(=N/O)Nc3ccc(F)c(Cl)c3)c2[nH]1` [Example 145, N-((7-(N-(3-Chloro-4-fluorophenyl)-N′-hydroxycarbamimidoyl)-1H-imidazo[4,5-b]pyridin-2-yl)methyl)acetamide] as the molecule, how does the pEC50 read?
**A.** 5.01

**Q.** How did the pEC50 turn out when `O/N=C(\Nc1ccc(F)c(Cl)c1)c1ccnc2nc(CCN3CC[C@H](O)C3)[nH]c12` [Example 261, (S)—N-(3-chloro-4-fluorophenyl)-N′-hydroxy-2-(2-(3-hydroxypyrrolidin-1-yl)ethyl)-1H-imidazo[4,5-b]pyridine-7-carboximidamide] was run?
**A.** 5.46

**Q.** `O/N=C(\Nc1ccc(F)c(Cl)c1)c1ccnc2nc(CNCc3cccnc3)[nH]c12` [Example 126, N-(3-Chloro-4-fluorophenyl)-N′-hydroxy-2-(((pyridin-3-ylmethyl)amino)methyl)-1H-imidazo[4,5-b]pyridine-7-carboximidamide] was tested. Which pEC50 did it give?
**A.** 5.64

**Q.** With `Cc1nc2nccc(/C(=N/O)Nc3ccc(F)c(Cl)c3)c2[nH]1` [Example 107, N-(3-Chloro-4-fluorophenyl)-N′-hydroxy-2-methyl-1H-imidazo[4,5-b]pyridine-7-carboximidamide] as the molecule, how does the pEC50 read?
**A.** 5.72

**Q.** How did the pEC50 turn out when `COCCCNCc1nc2nccc(/C(=N/O)Nc3ccc(F)c(Cl)c3)c2[nH]1` [Example 120, N-(3-Chloro-4-fluorophenyl)-N′-hydroxy-2-(((3-methoxypropyl)amino)methyl)-1H-imidazo[4,5-b]pyridine-7-carboximidamide] was run?
**A.** 5.87

**Q.** `O/N=C(\Nc1cccc(Br)c1)c1ccnc2nc[nH]c12` [Example 80, N-(3-Bromophenyl)-N′-hydroxy-1H-imidazo[4,5-b]pyridine-7-carboximidamide] was tested. Which pEC50 did it give?
**A.** 6.95

**Q.** How did the pEC50 turn out when `O/N=C(\Nc1ccc(F)c(Cl)c1)c1ccnc2nc(CNCc3ncccn3)[nH]c12` [Example 130, N-(3-Chloro-4-fluorophenyl)-N′-hydroxy-2-(((pyrimidin-2-ylmethyl)amino)methyl)-1H-imidazo[4,5-b]pyridine-7-carboximidamide] was run?
**A.** 5.55

**Q.** With `Nc1nc2c(F)ccc(/C(=N/O)Nc3ccc(F)c(Cl)c3)c2[nH]1` [Example 22, 2-Amino-N-(3-chloro-4-fluorophenyl)-4-fluoro-N′-hydroxy-1H-benzo[d]imidazole-7-carboximidamide] as the molecule, how does the pEC50 read?
**A.** 6.42

**Q.** How did the pEC50 turn out when `Nc1nc2c(F)c(F)cc(/C(=N/O)Nc3ccc(F)c(Cl)c3)c2[nH]1` [Example 13, 2-Amino-N-(3-chloro-4-fluorophenyl)-4,5-difluoro-N′-hydroxy-1H-benzo[d]imidazole-7-carboximidamide] was run?
**A.** 5.56

**Q.** With `O/N=C(\Nc1ccc(F)c(Cl)c1)c1ccnc2nc(CCN3CCCCC3)[nH]c12` [Example 192, N-(3-Chloro-4-fluorophenyl)-N′-hydroxy-2-(2-(piperidin-1-yl)ethyl)-1H-imidazo[4,5-b]pyridine-7-carboximidamide] as the molecule, how does the pEC50 read?
**A.** 6.62

**Q.** `O/N=C(\Nc1ccc(OC(F)(F)F)cc1)c1ccnc2nc[nH]c12` [Example 66, N′-Hydroxy-N-(4-(trifluoromethoxy)phenyl)-1H-imidazo[4,5-b]pyridine-7-carboximidamide] was tested. Which pEC50 did it give?
**A.** 5.31

**Q.** With `CN(C)CCCc1nc2c(F)c(F)cc(/C(=N/O)Nc3ccc(F)c(Cl)c3)c2[nH]1` [Example 199, N-(3-Chloro-4-fluorophenyl)-2-[3-(dimethylamino)propyl]-6,7-difluoro-N′-hydroxy-3H-benzimidazole-4-carboximidamide] as the molecule, how does the pEC50 read?
**A.** 5.35

**Q.** `O/N=C(\Nc1ccc(F)c(Cl)c1)c1ccnc2nc(CNCC3CC3)[nH]c12` [Example 117, N-(3-Chloro-4-fluorophenyl)-2-(((cyclopropylmethyl)amino)methyl)-N′-hydroxy-1H-imidazo[4,5-b]pyridine-7-carboximidamide] was tested. Which pEC50 did it give?
**A.** 6.12

**Q.** `CS(=O)(=O)NCCc1nc2nccc(/C(=N/O)Nc3ccc(F)c(Cl)c3)c2[nH]1` [Example 266, N-(3-chloro-4-fluorophenyl)-N′-hydroxy-2-(2-(methylsulfonamido)ethyl)-1H-imidazo[4,5-b]pyridine-7-carboximidamide] was tested. Which pEC50 did it give?
**A.** < 5.00

**Q.** With `CCOC(=O)Nc1nc2nccc(/C(=N/O)Nc3ccc(F)c(Cl)c3)c2[nH]1` [Example 160, Ethyl (7-(N-(3-chloro-4-fluorophenyl)-N′-hydroxycarbamimidoyl)-1H-imidazo[4,5-b]pyridin-2-yl)carbamate] as the molecule, how does the pEC50 read?
**A.** 6.37

**Q.** `CN(C)Cc1nc2c(F)c(F)cc(/C(=N/O)Nc3cccc(Cl)c3)c2[nH]1` [Example 26, N-(3-Chlorophenyl)-2-((dimethylamino)methyl)-4,5-difluoro-N′-hydroxy-1H-benzo[d]imidazole-7-carboximidamide] was tested. Which pEC50 did it give?
**A.** 5.92

**Q.** How did the pEC50 turn out when `O/N=C(\Nc1ccc(F)c(Br)c1)c1ccnc2nc[nH]c12` [Example 81, N-(3-Bromo-4-fluorophenyl)-N′-hydroxy-1H-imidazo[4,5-b]pyridine-7-carboximidamide] was run?
**A.** 6.85

**Q.** With `Nc1nc2c(F)ccc(/C(=N/O)Nc3ccc(F)c(C(F)(F)F)c3)c2[nH]1` [Example 21, 2-Amino-4-fluoro-N-(4-fluoro-3-(trifluoromethyl)phenyl)-N′-hydroxy-1H-benzo[d]imidazole-7-carboximidamide] as the molecule, how does the pEC50 read?
**A.** 6.14

**Q.** With `O/N=C(\Nc1ccc(F)c(Cl)c1)c1ccnc2nc(CCN3CCC3)[nH]c12` [Example 259, 2-(2-(azetidin-1-yl)ethyl)-N-(3-chloro-4-fluorophenyl)-N′-hydroxy-1H-imidazo[4,5-b]-pyridine-7-carboximidamide] as the molecule, how does the pEC50 read?
**A.** 5.89

**Q.** With `O/N=C(\Nc1ccc(F)c(Cl)c1)c1ccc(Br)c2nc[nH]c12` [Example 12, 4-Bromo-N-(3-chloro-4-fluorophenyl)-N′-hydroxy-1H-benzo[d]imidazole-7-carboximidamide] as the molecule, how does the pEC50 read?
**A.** 6.18

**Q.** How did the pEC50 turn out when `O/N=C(\Nc1ccc(F)c(Cl)c1)c1ccnc2nc(CN3CCCC3)[nH]c12` [Example 139, N-(3-Chloro-4-fluorophenyl)-N′-hydroxy-2-(pyrrolidin-1-ylmethyl)-1H-imidazo[4,5-b]pyridine-7-carboximidamide] was run?
**A.** 5.85

Same assay, conditions: HeLa cells, IFNγ-induced IDO1, kynurenine in supernatant, 48 hour incubation; geometric mean of a minimum of four determinations

**Q.** How did the pEC50 turn out when `CN(C)CCNc1nc2c(F)ccc(/C(=N/O)Nc3ccc(F)c(Br)c3)c2[nH]1` [Example 382, N-(3-bromo-4-fluorophenyl)-2-((2-(dimethylamino)ethyl)amino)-4-fluoro-N′-hydroxy-1H-benzo[d]imidazole-7-carboximidamide] was run?
**A.** 6.22

**Q.** With `O/N=C(\Nc1ccc(F)c(Cl)c1)c1ccnc2nc(NCc3ncccn3)[nH]c12` [Example 494, N-(3-chloro-4-fluorophenyl)-N′-hydroxy-2-((pyrimidin-2-ylmethyl)amino)-1H-imidazo[4,5-b]pyridine-7-carboximidamide] as the molecule, how does the pEC50 read?
**A.** < 5.00

**Q.** `CN(CCc1nc2nccc(/C(=N/O)Nc3ccc(F)c(Cl)c3)c2[nH]1)CC1COCCO1` (stereo not drawn) [Example 400, 2-(2-(((1,4-dioxan-2-yl)methyl)(methyl)amino)ethyl)-N-(3-chloro-4-fluorophenyl)-N′-hydroxy-1H-imidazo[4,5-b]pyridine-7-carboximidamide] was tested. Which pEC50 did it give?
**A.** 5.55

**Q.** `CN(CCNc1nc2c(F)c(F)cc(/C(=N/O)Nc3ccc(F)c(Cl)c3)c2[nH]1)CC1CC1` [Example 398, N-(3-chloro-4-fluorophenyl)-2-((2-((cyclopropylmethyl)(methyl)amino)ethyl)amino)-4,5-difluoro-N′-hydroxy-1H-benzo[d]imidazole-7-carboximidamide] was tested. Which pEC50 did it give?
**A.** 6.26

**Q.** With `O/N=C(\Nc1ccc(F)c(Cl)c1)c1cc(F)c(F)c2nc(NC3COCCC3N3CCCC3)[nH]c12` (stereo not drawn) [Example 473, N-(3-chloro-4-fluorophenyl)-4,5-difluoro-N′-hydroxy-2-((4-(pyrrolidin-1-yl)tetrahydro-2H-pyran-3-yl)amino)-1H-benzo[d]imidazole-7-carboximidamide] as the molecule, how does the pEC50 read?
**A.** 5.99

**Q.** With `CCC(CC)CN(C)CCNc1nc2c(F)c(F)cc(/C(=N/O)Nc3ccc(F)c(Cl)c3)c2[nH]1` [Example 397, N-(3-chloro-4-fluorophenyl)-2-((2-((2-ethylbutyl)(methyl)amino)ethyl)amino)-4,5-difluoro-N′-hydroxy-1H-benzo[d]imidazole-7-carboximidamide] as the molecule, how does the pEC50 read?
**A.** 5.88

**Q.** `CN1CCOC[C@H]1CNc1nc2nccc(/C(=N/O)Nc3ccc(F)c(Cl)c3)c2[nH]1` [Example 482, (R)-N-(3-chloro-4-fluorophenyl)-N′-hydroxy-2-(((4-methylmorpholin-3-yl)methyl)amino)-1H-imidazo[4,5-b]pyridine-7-carboximidamide] was tested. Which pEC50 did it give?
**A.** 5.58

**Q.** How did the pEC50 turn out when `COc1c(F)cc(/C(=N/O)Nc2ccc(F)c(Cl)c2)c2[nH]cnc12` [Example 307, N-(3-chloro-4-fluorophenyl)-5-fluoro-N′-hydroxy-4-methoxy-1H-benzo[d]imidazole-7-carboximidamide] was run?
**A.** 6.68

**Q.** How did the pEC50 turn out when `O/N=C(\Nc1ccc(F)c(Cl)c1)c1cc(F)c(F)c2nc(NCCCN3CCOCC3)[nH]c12` [Example 433, N-(3-chloro-4-fluorophenyl)-4,5-difluoro-N′-hydroxy-2-((3-morpholinopropyl)amino)-1H-benzo[d]imidazole-7-carboximidamide] was run?
**A.** 6.05

**Q.** With `CN(C)[C@@H]1CCC[C@H]1Nc1nc2c(F)c(F)cc(/C(=N/O)Nc3ccc(F)c(Cl)c3)c2[nH]1` [Example 486, N-(3-chloro-4-fluorophenyl)-2-(((1R,2R)-2-(dimethylamino)cyclopentyl)amino)-4,5-difluoro-N′-hydroxy-1H-benzo[d]imidazole-7-carboximidamide] as the molecule, how does the pEC50 read?
**A.** 6.55

**Q.** With `CCN(CC)[C@H]1COC[C@@H]1Nc1nc2nccc(C(=NO)Nc3ccc(F)c(Cl)c3)c2[nH]1` [Example 480, N-(3-chloro-4-fluorophenyl)-2-(((3R,4R)-4-(diethylamino)tetrahydrofuran-3-yl)amino)-N′-hydroxy-1H-imidazo[4,5-b]pyridine-7-carboximidamide] as the molecule, how does the pEC50 read?
**A.** 5.92

**Q.** `CN(C)CCSc1nc2nccc(/C(=N/O)Nc3ccc(F)c(Cl)c3)c2[nH]1` [Example 487, N-(3-chloro-4-fluorophenyl)-2-((2-(dimethylamino)ethyl)thio)-N′-hydroxy-1H-imidazo[4,5-b]pyridine-7-carboximidamide] was tested. Which pEC50 did it give?
**A.** 5.87
